Calls of active or inactive are those of the source. The calls are words filed in the database; no cut-off is given here.
Assays:
BT-549 = experiment: Antiproliferative activity against human BT-549 cells assessed as growth inhibition incubated for 72 hrs by luminescence assay; assay type: functional
M14 = experiment: Antiproliferative activity against human M14 cells assessed as growth inhibition incubated for 72 hrs by luminescence assay; assay type: functional
OVCAR-4 = experiment: Antiproliferative activity against human OVCAR-4 cells assessed as growth inhibition incubated for 72 hrs by luminescence assay; assay type: functional
[1] = Cmax in Sprague-Dawley rat at 1 mg/kg, iv measured up to 24 hrs by LC-MS/MS analysis; assay type: ADME, organism-based; parameters: route intravenous, dose 1 mg/kg, time <=24; details: in vivo
MCF7 = experiment: Antiproliferative activity against human MCF7 cells assessed as growth inhibition incubated for 72 hrs by luminescence assay; assay type: functional
SF-295 = experiment: Antiproliferative activity against human SF-295 cells assessed as growth inhibition incubated for 72 hrs by luminescence assay; assay type: functional
NCI-H322M = experiment: Antiproliferative activity against human NCI-H322M cells assessed as growth inhibition incubated for 72 hrs by luminescence assay; assay type: functional
NCI-H460 = experiment: Antiproliferative activity against human NCI-H460 cells assessed as growth inhibition incubated for 72 hrs by luminescence assay; assay type: functional
K562 = experiment: Antiproliferative activity against human K562 cells assessed as growth inhibition incubated for 72 hrs by luminescence assay; assay type: functional
NCI-H23 = experiment: Antiproliferative activity against human NCI-H23 cells assessed as growth inhibition incubated for 72 hrs by luminescence assay; assay type: functional
[2] = Metabolic stability in monkey plasma assessed as half life at 100 uM measured upto 120 mins by LC-MS/MS analysis; assay type: ADME, cell-free, Macaca mulatta; details: rhesus monkey
MDA-MB-435 = experiment: Antiproliferative activity against human MDA-MB-435 cells assessed as growth inhibition incubated for 72 hrs by luminescence assay; assay type: functional
U-251 = experiment: Antiproliferative activity against human U-251 cells assessed as growth inhibition incubated for 72 hrs by luminescence assay; assay type: functional
Malme-3M = experiment: Antiproliferative activity against human Malme-3M cells assessed as growth inhibition incubated for 72 hrs by luminescence assay; assay type: functional
RPMI-8226 = experiment: Antiproliferative activity against human RPMI-8226 cells assessed as growth inhibition incubated for 72 hrs by luminescence assay; assay type: functional
CCRF-CEM = experiment: Antiproliferative activity against human CCRF-CEM cells assessed as growth inhibition incubated for 72 hrs by luminescence assay; assay type: functional
RXF 393 = experiment: Antiproliferative activity against human RXF 393 cells assessed as growth inhibition incubated for 72 hrs by luminescence assay; assay type: functional
UACC-257 = experiment: Antiproliferative activity against human UACC-257 cells assessed as growth inhibition incubated for 72 hrs by luminescence assay; assay type: functional
[3] = Metabolic stability in rat plasma assessed as parent compound remaining at 100 uM measured after 2 hrs by LC-MS/MS analysis; assay type: ADME, cell-free; details: read-out: Stability
NCI-H226 = experiment: Antiproliferative activity against human NCI-H226 cells assessed as growth inhibition incubated for 72 hrs by luminescence assay; assay type: functional
[4] = AUC (0 to t) in Sprague-Dawley rat at 10 mg/kg, po measured up to 24 hrs by LC-MS/MS analysis; assay type: ADME, organism-based; parameters: route oral, dose 10 mg/kg, time <=24; details: in vivo
[5] = Metabolic stability in dog liver microsomes assessed as intrinsic clearance incubated for 10 mins by LC-MS/MS analysis; assay type: ADME, Canis lupus familiaris, Microsome; details: read-out: CLH
MDA-MB-468 = experiment: Antiproliferative activity against human MDA-MB-468 cells assessed as growth inhibition incubated for 72 hrs by luminescence assay; assay type: functional
[6] = Cmax in Sprague-Dawley rat at 10 mg/kg, po measured up to 24 hrs by LC-MS/MS analysis; assay type: ADME, organism-based; parameters: route oral, dose 10 mg/kg, time <=24; details: in vivo
Histone deacetylase 1 = Histone deacetylase 1 (Homo sapiens, UniProt Q13547); experiment: Inhibition of HDAC1 (unknown origin) using p53 (379 to 382 residues) (RHKK(Ac-AMC) as fluorogenic substrate incubated for 1 hrs by fluorescence based assay
Histone deacetylase 1, sequence (Q13547 whole entry, the tested form may be a part): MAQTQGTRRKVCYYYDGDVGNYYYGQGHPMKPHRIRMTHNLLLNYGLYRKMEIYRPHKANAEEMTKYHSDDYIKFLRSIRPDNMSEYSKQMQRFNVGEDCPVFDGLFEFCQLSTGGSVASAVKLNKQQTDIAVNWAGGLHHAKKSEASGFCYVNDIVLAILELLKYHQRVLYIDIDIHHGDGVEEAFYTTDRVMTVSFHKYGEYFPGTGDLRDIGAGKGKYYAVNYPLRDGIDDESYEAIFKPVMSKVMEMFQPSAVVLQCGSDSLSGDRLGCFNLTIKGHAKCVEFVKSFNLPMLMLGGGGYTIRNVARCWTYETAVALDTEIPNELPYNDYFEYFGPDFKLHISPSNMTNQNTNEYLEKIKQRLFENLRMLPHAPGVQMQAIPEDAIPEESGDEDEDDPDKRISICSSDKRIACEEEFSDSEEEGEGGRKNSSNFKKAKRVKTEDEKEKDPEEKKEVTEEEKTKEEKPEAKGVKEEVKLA

OVCAR-3 = experiment: Antiproliferative activity against human OVCAR-3 cells assessed as growth inhibition incubated for 72 hrs by luminescence assay; assay type: functional
EKVX = experiment: Antiproliferative activity against human EKVX cells assessed as growth inhibition incubated for 72 hrs by luminescence assay; assay type: functional
HCT-116 [7] = experiment: Antiproliferative activity against human HCT-116 cells assessed as cell viability at 1 uM incubated for 72 hrs by luminescence assay; assay type: functional, cell-based; details: HCT-116, 72 h
MOLT-4 = experiment: Antiproliferative activity against human MOLT-4 cells assessed as growth inhibition incubated for 72 hrs by luminescence assay; assay type: functional
SR = experiment: Antiproliferative activity against human SR cells assessed as growth inhibition incubated for 72 hrs by luminescence assay; assay type: functional
[8] = Metabolic stability in human liver microsomes assessed as half life incubated for 10 mins by LC-MS/MS analysis; assay type: ADME, Microsome
[9] = AUC (0 to t) in Sprague-Dawley rat at 1 mg/kg, iv measured up to 24 hrs by LC-MS/MS analysis; assay type: ADME, organism-based; parameters: route intravenous, dose 1 mg/kg, time <=24; details: in vivo
Histone deacetylase 8 = Histone deacetylase 8 (Homo sapiens, UniProt Q9BY41); experiment: Inhibition of HDAC8 (unknown origin) using p53 (379 to 382 residues) (RHKK(Ac-AMC) as fluorogenic substrate incubated for 2 hrs by fluorescence based assay
Histone deacetylase 8, sequence (Q9BY41 whole entry, the tested form may be a part): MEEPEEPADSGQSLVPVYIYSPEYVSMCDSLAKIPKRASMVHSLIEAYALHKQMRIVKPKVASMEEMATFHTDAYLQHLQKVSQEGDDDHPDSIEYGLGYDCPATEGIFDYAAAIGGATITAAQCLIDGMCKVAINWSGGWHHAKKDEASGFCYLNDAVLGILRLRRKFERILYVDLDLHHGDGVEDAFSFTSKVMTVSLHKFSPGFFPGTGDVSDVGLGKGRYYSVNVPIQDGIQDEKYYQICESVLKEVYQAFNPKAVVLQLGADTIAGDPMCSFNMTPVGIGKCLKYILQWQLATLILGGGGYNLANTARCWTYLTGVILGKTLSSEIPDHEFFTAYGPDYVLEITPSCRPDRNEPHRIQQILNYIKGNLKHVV

HCT-15 = experiment: Antiproliferative activity against human HCT-15 cells assessed as growth inhibition incubated for 72 hrs by luminescence assay; assay type: functional
COLO 205 = experiment: Antiproliferative activity against human COLO 205 cells assessed as growth inhibition incubated for 72 hrs by luminescence assay; assay type: functional
[10] = Metabolic stability in monkey plasma assessed as parent compound remaining at 100 uM measured after 2 hrs by LC-MS/MS analysis; assay type: ADME, cell-free, Macaca mulatta; details: rhesus monkey, read-out: Stability
HT-29 = experiment: Antiproliferative activity against human HT-29 cells assessed as growth inhibition incubated for 72 hrs by luminescence assay; assay type: functional
[11] = Metabolic stability in human plasma assessed as parent compound remaining at 100 uM measured after 2 hrs by LC-MS/MS analysis; assay type: ADME, cell-free; details: read-out: Stability
NCI/ADR-RES = experiment: Antiproliferative activity against human NCI/ADR-RES cells assessed as growth inhibition incubated for 72 hrs by luminescence assay; assay type: functional
[12] = Volume of distribution at steady state in Sprague-Dawley rat at 1 mg/kg, iv measured up to 24 hrs by LC-MS/MS analysis; assay type: ADME, organism-based; details: in vivo, read-out: Vdss
[13] = Metabolic stability in dog liver microsomes assessed as half life incubated for 10 mins by LC-MS/MS analysis; assay type: ADME, Canis lupus familiaris, Microsome
HCC 2998 = experiment: Antiproliferative activity against human HCC 2998 cells assessed as growth inhibition incubated for 72 hrs by luminescence assay; assay type: functional
SNB-19 = experiment: Antiproliferative activity against human SNB-19 cells assessed as growth inhibition incubated for 72 hrs by luminescence assay; assay type: functional
SW-620 = experiment: Antiproliferative activity against human SW-620 cells assessed as growth inhibition incubated for 72 hrs by luminescence assay; assay type: functional
HCT-116 [14] = experiment: Effect on SNAI1 protein expression in human HCT-116 cells at 75 nM measured after 24 hrs by western blot analysis; assay type: functional, cell-based

- GI50 (BT-549): 296 nM
- GI50 (OVCAR-4): 1660 nM
- Cmax [1]: 144 ng/mL
- GI50 (MCF7): 51.8 nM
- GI50 (NCI-H322M): 1010 nM
- GI50 (NCI-H460): 395 nM
- GI50 (K562): 48.7 nM
- GI50 (NCI-H23): 603 nM
- half-life at 100 µM [2]: 5.5 h
- GI50 (MDA-MB-435): 36.1 nM
- GI50 (U-251): 343 nM
- GI50 (RPMI-8226): 514 nM
- GI50 (CCRF-CEM): 411 nM
- remaining at 2 h, 100 µM [3]: 105%
- GI50 (NCI-H226): 2700 nM
- AUCt [4]: 52.1 ng·h/mL
- microsomal CLint [5]: 26.6 µL/min/mg
- GI50 (MDA-MB-468): 432 nM
- Cmax [6]: 6.61 ng/mL
- IC50 (Histone deacetylase 1): 405 nM
- GI50 (OVCAR-3): 202 nM
- IC50 (HCT-116 [7]): 75.1 nM
- GI50 (MOLT-4): 508 nM
- half-life [8]: 1.1 h
- AUCt [9]: 715 ng·h/mL
- IC50 (Histone deacetylase 8): > 10000 nM
- GI50 (HCT-15): 424 nM
- GI50 (COLO 205): 296 nM
- remaining at 2 h, 100 µM [10]: 82.4%
- GI50 (HT-29): 322 nM
- remaining at 2 h, 100 µM [11]: 79.1%
- Vd [12]: 1.06 L/kg
- half-life [13]: 0.868 h
- GI50 (HCC 2998): 677 nM
- GI50 (SW-620): 426 nM
Compound: Cc1cc(Nc2nc(SCc3ccc(C(=O)Nc4ccc(F)cc4N)cc3)nn3cccc23)n[nH]1
- GI50 (M14): 289 nM
- GI50 (SF-295): 354 nM
- GI50 (Malme-3M): 1830 nM
- GI50 (RXF 393): 301 nM
- GI50 (UACC-257): 3690 nM
- GI50 (EKVX): 919 nM
- GI50 (SR): 68 nM
- GI50 (NCI/ADR-RES): 1980 nM
- GI50 (SNB-19): 536 nM
- Activity (HCT-116 [14]): Active

Source: ChEMBL document CHEMBL5046255, “Design and synthesis of dual inhibitors targeting snail and histone deacetylase for the treatment of solid tumour cancer” (Eur J Med Chem, 2022)
